Values joined by “and” are separate entries in the source; they are usually repeats but may differ in a detail not shown here. Equal entries are not always repeated. Toxic doses and inconclusive results are not listed.

For this experiment, the system named is L1210 leukemia ip in BDF1 mice, survival T/C. The experiment is described as follows: NCI In Vivo Anticancer Drug Screen. Data for tumor model L1210 Leukemia (intraperitoneal) in B6D2F1 (BDF1) mice. As to conditions: endpoint: mean survival time, higher = longer survival. A digest of the protocol:
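Tumor cells were implanted, animals were treated, and survival was followed. The result divides the treated measurement by the vehicle-control measurement.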

The mark [1] stands for this setting: dose: 100.0 mg/kg/injection, schedule: Q01DX001 (ip), vehicle: Klucel (hydroxypropylcellulose) (HPC).
Setting [2] is: dose: 400.0 mg/kg/injection, schedule: Q01DX001 (ip), vehicle: Klucel (hydroxypropylcellulose) (HPC).
Setting [3] is: dose: 100.0 mg/kg/injection, schedule: Q01DX009 (ip), vehicle: Klucel (hydroxypropylcellulose) (HPC).
The mark [4] stands for this setting: dose: 100.0 mg/kg/injection, schedule: Q01DX009 (ip), vehicle: saline with Tween-80.
[5] abbreviates: dose: 100.0 mg/kg/injection, schedule: Q04DX003 (ip), vehicle: saline with Tween-80.
Where [6] appears, read: dose: 200.0 mg/kg/injection, schedule: Q01DX009 (ip), vehicle: Klucel (hydroxypropylcellulose) (HPC).
Where [7] appears, read: dose: 200.0 mg/kg/injection, schedule: Q01DX009 (ip), vehicle: saline with Tween-80.
The mark [8] stands for this setting: dose: 200.0 mg/kg/injection, schedule: Q04DX003 (ip), vehicle: saline with Tween-80.
Setting [9] is: dose: 400.0 mg/kg/injection, schedule: Q01DX009 (ip), vehicle: Klucel (hydroxypropylcellulose) (HPC).
The mark [10] stands for this setting: dose: 400.0 mg/kg/injection, schedule: Q04DX003 (ip), vehicle: saline with Tween-80.
[11] abbreviates: dose: 25.0 mg/kg/injection, schedule: Q01DX009 (ip), vehicle: saline.
Where [12] appears, read: dose: 50.0 mg/kg/injection, schedule: Q01DX009 (ip), vehicle: saline.
Setting [13] is: dose: 400.0 mg/kg/injection, schedule: Q01DX009 (ip), vehicle: saline with Tween-80.

Consider `N#Cc1nc2c(nc1N)CCCCCCCCCC2`, for which the T/C reads like this: under setting [1], 96 % of control; under setting [2], 92 % of control.
Consider `Cc1ccc(C(=O)C(Br)C(Br)c2ccccc2)cc1` (stereo not given), for which the T/C is, setting by setting: under setting [3], 89 % of control; under setting [4], 90 % of control; under setting [5], 92 % of control; under setting [6], 89 % of control; under setting [7], 89 % of control; under setting [8], 89 % of control. For the same molecule, the T/C by setting is: under setting [9], 96 % of control; under setting [10], 95 % of control.
As to `COc1cc(Br)c(CC2c3cc(OCc4ccccc4)c(OC)cc3CCN2C)cc1OC` (stereo not given), the T/C (dose: 100.0 mg/kg/injection, schedule: Q04DX003 (ip), vehicle: acetone) is 112 % of control.
With `Cc1ccc(S(=O)(=O)OCC(O)C(O)C(O)C(O)C=O)cc1` (stereo not given) (tested in a mixture with another compound), the T/C is, setting by setting: under setting [5], 102 % of control; under setting [8], 94 % of control; under setting [10], 94 % of control.
Consider `Cc1cc(OC(=O)Nc2cc([N+](=O)[O-])ccc2F)cc(C)c1Cl`, for which the T/C was 89 % of control (dose: 100.0 mg/kg/injection, schedule: Q04DX003 (ip), vehicle: Klucel (hydroxypropylcellulose) (HPC)); 91 % of control (dose: 200.0 mg/kg/injection, schedule: Q04DX003 (ip), vehicle: Klucel (hydroxypropylcellulose) (HPC)); 93 % of control (dose: 400.0 mg/kg/injection, schedule: Q04DX003 (ip), vehicle: Klucel (hydroxypropylcellulose) (HPC)).
For `C[n+]1ccn(CC(=O)c2ccccc2)c1`, the T/C under setting [11] is 98 % of control; the T/C under setting [12] was 112 % of control; the T/C (dose: 100.0 mg/kg/injection, schedule: Q01DX009 (ip), vehicle: saline) was 93 % of control.
As for `Cc1c2cnccc2c(C)c2c1c1ccccc1n2C`, the T/C (dose: 29.0 mg/kg/injection, schedule: Q01DX Z (ip), vehicle: saline) is 109 % of control; the T/C (dose: 44.0 mg/kg/injection, schedule: Q01DX Z (ip), vehicle: saline) is 123 % of control; the T/C (dose: 66.0 mg/kg/injection, schedule: Q01DX Z (ip), vehicle: saline) is 120 % of control; the T/C (dose: 66.0 mg/kg/injection, schedule: Q01DX Z (oral), vehicle: saline) was 112 % of control; the T/C (dose: 100.0 mg/kg/injection, schedule: Q01DX Z (ip), vehicle: saline) was 121 % of control; the T/C (dose: 100.0 mg/kg/injection, schedule: Q01DX Z (oral), vehicle: saline) was 115 % of control. Moreover, the T/C (dose: 150.0 mg/kg/injection, schedule: Q01DX Z (oral), vehicle: saline) was 155 % of control and the T/C (dose: 225.0 mg/kg/injection, schedule: Q01DX Z (oral), vehicle: saline) was 171 % of control.
Consider `O=S(=O)(O)C(Nc1ccccn1)c1ccccc1` (stereo not given), for which the T/C (dose: 100.0 mg/kg/injection, schedule: Q01DX001 (ip), vehicle: saline with Tween-80) was 104 % of control.
In the case of `S=P(c1ccccc1)(N1CCCCC1)N1CCCCC1`, the T/C (dose: 100.0 mg/kg/injection, schedule: Q04DX003 (ip), vehicle: saline) was 97 % of control and the T/C (dose: 200.0 mg/kg/injection, schedule: Q04DX003 (ip), vehicle: saline) is 93 % of control.
For `O=C(O)C1CCCCC1/C=N/Nc1ccc([N+](=O)[O-])cc1[N+](=O)[O-]` (stereo not given), the T/C (dose: 50.0 mg/kg/injection, schedule: Q01DX001 (ip), vehicle: saline) was 93 % of control and the T/C (dose: 200.0 mg/kg/injection, schedule: Q01DX001 (ip), vehicle: saline) was 89 % of control.
Turning to `COc1ccc(S(=O)(=O)F)cc1NC(=O)NCc1ccc([N+](=O)[O-])cc1`, the T/C was 103 % of control under setting [3], 110 % of control under setting [6] and 108 % of control under setting [9].
Turning to `O=c1cc(Cc2ccccc2)[nH]c(=S)[nH]1`, the T/C is 94 % of control under setting [4]; 99 % of control under setting [5]; 93 % of control under setting [7]; 97 % of control under setting [8]; 96 % of control under setting [13]; 100 % of control under setting [10].
Regarding `CCC1=NS(=O)(=O)c2c(ncn2C)N1`, the T/C reads like this: (dose: 100.0 mg/kg/injection, schedule: Q04DX003 (ip), vehicle: other) 97 % of control; (dose: 200.0 mg/kg/injection, schedule: Q04DX003 (ip), vehicle: other) 97 % of control; (dose: 400.0 mg/kg/injection, schedule: Q04DX003 (ip), vehicle: other) 103 % of control.
As to `CSC1=Nc2c(C)nn(C)c2C(c2ccccc2)S1` (stereo not given), the T/C reads like this: (dose: 100.0 mg/kg/injection, schedule: Q04DX002 (ip), vehicle: saline with Tween-80) 100 % of control and 112 % of control; under setting [5], 97 % of control and 101 % of control; (dose: 200.0 mg/kg/injection, schedule: Q04DX002 (ip), vehicle: saline with Tween-80) 104 % of control and 89 % of control; under setting [8], 96 % of control and 100 % of control; (dose: 400.0 mg/kg/injection, schedule: Q04DX002 (ip), vehicle: saline with Tween-80) 94 % of control and 104 % of control; under setting [10], 96 % of control and 100 % of control.
On to `O=[As](O)(O)c1ccccc1N=Nc1ccccc1`, for which the T/C is 100 % of control (dose: 75.0 mg/kg/injection, schedule: Q01DX009 (ip), vehicle: Klucel (hydroxypropylcellulose) (HPC)); 87 % of control (dose: 150.0 mg/kg/injection, schedule: Q01DX009 (ip), vehicle: Klucel (hydroxypropylcellulose) (HPC)); 108 % of control (dose: 300.0 mg/kg/injection, schedule: Q01DX009 (ip), vehicle: Klucel (hydroxypropylcellulose) (HPC)).
With `COc1ccc(CN(C)N=Nc2ccc(C#N)cc2)cc1`, the T/C was 98 % of control under setting [4], 119 % of control under setting [7] and 124 % of control under setting [13].
For the molecule `[N-]=[N+]=C1N=C(Br)N=C1c1n[nH]c(Br)n1`, the T/C is, setting by setting: under setting [1], 98 % of control; (dose: 200.0 mg/kg/injection, schedule: Q01DX001 (ip), vehicle: Klucel (hydroxypropylcellulose) (HPC)) 109 % of control; under setting [2], 102 % of control.
`CNCCOC(c1ccccc1)c1ccccc1C` (stereo not given): the T/C runs as follows: (dose: 3.12 mg/kg/injection, schedule: Q01DX009 (ip), vehicle: saline) 107 % of control; (dose: 5.0 mg/kg/injection, schedule: Q01DX001 (ip), vehicle: saline) 103 % of control; (dose: 6.25 mg/kg/injection, schedule: Q01DX009 (ip), vehicle: saline) 96 % of control; (dose: 10.0 mg/kg/injection, schedule: Q01DX001 (ip), vehicle: saline) 100 % of control; (dose: 12.5 mg/kg/injection, schedule: Q01DX009 (ip), vehicle: saline) 101 % of control; (dose: 20.0 mg/kg/injection, schedule: Q01DX001 (ip), vehicle: saline) 105 % of control. In addition, the T/C under setting [11] is 101 % of control; the T/C (dose: 25.0 mg/kg/injection, schedule: Q04DX003 (ip), vehicle: saline) was 94 % of control; the T/C (dose: 40.0 mg/kg/injection, schedule: Q01DX001 (ip), vehicle: saline) was 100 % of control; the T/C under setting [12] is 106 % of control; the T/C (dose: 50.0 mg/kg/injection, schedule: Q04DX003 (ip), vehicle: saline) is 108 % of control; the T/C (dose: 80.0 mg/kg/injection, schedule: Q01DX001 (ip), vehicle: saline) is 103 % of control.
For `[C-]#[N+]C(C)(CC)c1ccccc1` (stereo not given), the T/C (dose: 6.25 mg/kg/injection, schedule: Q01DX009 (ip), vehicle: saline with Tween-80) is 93 % of control; the T/C (dose: 6.25 mg/kg/injection, schedule: Q04DX003 (ip), vehicle: acetone) was 96 % of control; the T/C (dose: 12.5 mg/kg/injection, schedule: Q01DX001 (ip), vehicle: acetone) is 91 % of control; the T/C (dose: 12.5 mg/kg/injection, schedule: Q01DX009 (ip), vehicle: saline with Tween-80) is 95 % of control; the T/C (dose: 12.5 mg/kg/injection, schedule: Q04DX003 (ip), vehicle: acetone) is 108 % of control; the T/C (dose: 25.0 mg/kg/injection, schedule: Q01DX001 (ip), vehicle: acetone) was 96 % of control. The T/C is 95 % of control (dose: 25.0 mg/kg/injection, schedule: Q01DX009 (ip), vehicle: saline with Tween-80) and 100 % of control (dose: 25.0 mg/kg/injection, schedule: Q04DX003 (ip), vehicle: acetone).

The values above are taken from PubChem BioAssay AID248 (DTP/NCI, 2004).
